Experimental data reported in patent US20260053932A1, “COMPOUNDS AND METHODS FOR THE TARGETED DEGRADATION OF ANDROGEN RECEPTOR AND ASSOCIATED METHODS OF USE” (Arvinas Operations, Inc., priority 2020, published 2026).

System: androgen receptor (AR) in LNCaP and/or VCaP cells
Experiment: Androgen Receptor ELISA assay (AR degradation)
Format: cell-based
Conditions: LNCaP and/or VCaP cells; 5 hours incubation; media with R1881; read-out: DC50 Code* (degradation of AR ELISA)
Summary of the method: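 VCaP cells grown ≥3 days, then treated 5 h with compound in media containing 1 nM R1881 (10× stock). Cells lysed and AR quantified by sandwich ELISA (mouse AR detection Ab, HRP anti-mouse, TMB). DC50 and Dmax derived from AR degradation.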

Row | DC50 [nM] | SMILES
1 | > 100 | COc1cc(O[C@H]2C[C@H](N(CC3CCN(c4ncc(C(=O)N[C@H]5CC[C@H](Oc6cc(C)c(C#N)c(C)c6)C5)cn4)CC3)C(C)C)C2)cc2c1C(=O)N(C1CCC(=O)NC1=O)C2=O (stereo partly drawn) [Compound 5, N-((1S,3S)-3-(4-cyano-3,5-dimethylphenoxy)cyclopentyl)-2-(4-((((1r,3S)-3-((2-(2,6-dioxopiperidin-3-yl)-7-methoxy-1,3-dioxoisoindolin-5-yl)oxy)cyclobutyl) (isopropyl)amino)methyl)piperidin-1-yl)pyrimidine-5-carboxamide]
2 | < 1 | N#Cc1ccc(O[C@H]2CC[C@H](NC(=O)c3ccc(N4CCC(CN5CCN(c6ccc7c(c6F)C(=O)N(C6CCC(=O)NC6=O)C7=O)CC5)CC4)nn3)CC2)cc1Cl (stereo partly shown) [Compound 49]

Same assay, conditions: degradation of AR ELISA in LNCaP and/or VCaP cells; Table 2C; read-out: DC50 Code*

Row | DC50 [nM] | SMILES
3 | < 1 | [2H]C([2H])([2H])Oc1cc(O[C@H]2C[C@H](N(CC3CCN(c4ccc(C(=O)N[C@H]5C(C)(C)[C@H](Oc6ccc(C#N)c(OC)c6)C5(C)C)cc4)CC3)C(C)C)C2)cc2c1C(=O)N(C1CCC(=O)NC1=O)C2=O (mixture of isomers) [compound 159, rac-N-((1r,3r)-3-(4-cyano-3-methoxyphenoxy)-2,2,4,4-tetramethylcyclobutyl)-4-(4-((((1r,3r)-3-((2-(2,6-dioxopiperidin-3-yl)-7-(methoxy-d3)-1,3-dioxoisoindolin-5-yl)oxy)cyclobutyl) (isopropyl)amino)methyl)piperidin-1-yl)benzamide]
4 | > 100 | Cc1cc(O[C@H]2C(C)(C)[C@H](NC(=O)c3cnc(N4CCC(CN(C(C)C)[C@H]5C[C@H](Oc6ccc7c(c6)CN(C6CCC(=O)NC6=O)C7=O)C5)CC4)cn3)C2(C)C)cc(C)c1C#N (mixture of isomers) [compound 126, rac-N-((1r,3r)-3-(4-cyano-3,5-dimethylphenoxy)-2,2,4,4-tetramethylcyclobutyl)-5-(4-((((1r,3r)-3-((2-(2,6-dioxopiperidin-3-yl)-1-oxoisoindolin-5-yl)oxy)cyclobutyl) (isopropyl)amino)methyl)piperidin-1-yl)pyrazine-2-carboxamide]
5 | < 1 | COc1cc(O[C@H]2C(C)(C)[C@H](NC(=O)c3ccc(N4CCC(CN(CCN5CCOCC5)[C@H]5C[C@H](Oc6ccc7c(c6)C(=O)N(C6CCC(=O)NC6=O)C7=O)C5)CC4)cc3)C2(C)C)ccc1C#N (stereo partly shown) [compound 204, N-((1r,3r)-3-(4-cyano-3-methoxyphenoxy)-2,2,4,4-tetramethylcyclobutyl)-4-(4-((((1r,3r)-3-((2-(2,6-dioxopiperidin-3-yl)-1,3-dioxoisoindolin-5-yl)oxy)cyclobutyl)(2-morpholinoethyl)amino)methyl)piperidin-1-yl)benzamide]
6 | < 1 | COCCN(CC1CCN(c2ccc(C(=O)N[C@H]3C(C)(C)[C@H](Oc4cc(C)c(C#N)c(C)c4)C3(C)C)cc2)CC1)[C@H]1C[C@H](Oc2ccc3c(c2)C(=O)N(C2CCC(=O)NC2=O)C3=O)C1 (stereo partly shown) [compound 96, N-((1r,3r)-3-(4-cyano-3,5-dimethylphenoxy)-2,2,4,4-tetramethylcyclobutyl)-4-(4-((((1r,3r)-3-((2-(2,6-dioxopiperidin-3-yl)-1,3-dioxoisoindolin-5-yl)oxy)cyclobutyl)(2-methoxyethyl)amino)methyl)piperidin-1-yl)benzamide]
7 | < 1 | Cc1cc(O[C@H]2C(C)(C)[C@H](NC(=O)c3ccc(N4CCC(N(C)[C@H]5C[C@H](Oc6ccc7c(c6)C(=O)N(C6CCC(=O)NC6=O)C7=O)C5)CC4)cc3)C2(C)C)cc(C)c1C#N (mixture of isomers) [compound 157, rac-N-((1r,3r)-3-(4-cyano-3,5-dimethylphenoxy)-2,2,4,4-tetramethylcyclobutyl)-4-(4-(((1r,3r)-3-((2-(2,6-dioxopiperidin-3-yl)-1,3-dioxoisoindolin-5-yl)oxy)cyclobutyl) (methyl)amino)piperidin-1-yl)benzamide]
